# Reference: ChEMBL document CHEMBL4507284, “Data for DCP probe BI-1230” (2021)
# Activity calls are given as the source filed them. The rule behind the calls is not given here.
# Key:
# [1] = biological target: SRSF protein kinase 3 (Homo sapiens) (UniProt Q9UPE1); conditions: Compound concentration 1000.0 nM
# [2] = biological target: Serine/threonine-protein kinase MARK1 (Homo sapiens) (UniProt Q9P0L2); conditions: Compound concentration 1000.0 nM
# [3] = biological target: Serine/threonine-protein kinase TAO1 (Homo sapiens) (UniProt Q7L7X3); conditions: Compound concentration 1000.0 nM
# [4] = biological target: Leukocyte tyrosine kinase receptor (Homo sapiens) (UniProt P29376); conditions: Compound concentration 1000.0 nM
# [5] = biological target: SRSF protein kinase 1 (Homo sapiens) (UniProt Q96SB4); conditions: Compound concentration 1000.0 nM
# [6] = biological target: Mitogen-activated protein kinase 15 (Homo sapiens) (UniProt Q8TD08); conditions: Compound concentration 1000.0 nM
# [7] = biological target: Mitogen-activated protein kinase 12 (Homo sapiens) (UniProt P53778); conditions: Compound concentration 1000.0 nM
# [8] = biological target: Tyrosine-protein kinase Lck (Homo sapiens) (UniProt P06239); conditions: Compound concentration 1000.0 nM
# [9] = biological target: Atypical kinase COQ8B, mitochondrial (Homo sapiens) (UniProt Q96D53); conditions: Compound concentration 1000.0 nM
# [10] = biological target: Serine/threonine-protein kinase 10 (Homo sapiens) (UniProt O94804); conditions: Compound concentration 1000.0 nM
# [11] = biological target: cAMP-dependent protein kinase catalytic subunit alpha (Homo sapiens) (UniProt P17612); conditions: Compound concentration 1000.0 nM
# [12] = test system: ALK tyrosine kinase receptor (Homo sapiens), Q9UM73 [L1196M]; conditions: Compound concentration 1000.0 nM
# [13] = biological target: Serine/threonine-protein kinase PAK 3 (Homo sapiens) (UniProt O75914); conditions: Compound concentration 1000.0 nM
# [14] = biological target: Ephrin type-A receptor 5 (Homo sapiens) (UniProt P54756); conditions: Compound concentration 1000.0 nM
# [15] = biological target: Ephrin type-B receptor 6 (Homo sapiens) (UniProt O15197); conditions: Compound concentration 1000.0 nM
# [16] = biological target: Tyrosine-protein kinase Yes (Homo sapiens) (UniProt P07947); conditions: Compound concentration 1000.0 nM
# [17] = biological target: Receptor-interacting serine/threonine-protein kinase 2 (Homo sapiens) (UniProt O43353); conditions: Compound concentration 1000.0 nM
# [18] = biological target: Cyclin-dependent kinase-like 3 (Homo sapiens) (UniProt Q8IVW4); conditions: Compound concentration 1000.0 nM
# [19] = biological target: Phosphatidylinositol 5-phosphate 4-kinase type-2 beta (Homo sapiens) (UniProt P78356); conditions: Compound concentration 1000.0 nM
# [20] = biological target: Tyrosine-protein kinase Lyn (Homo sapiens) (UniProt P07948); conditions: Compound concentration 1000.0 nM
# [21] = biological target: Hormonally up-regulated neu tumor-associated kinase (Homo sapiens) (UniProt P57058); conditions: Compound concentration 1000.0 nM
# [22] = biological target: Serine/threonine-protein kinase 16 (Homo sapiens) (UniProt O75716); conditions: Compound concentration 1000.0 nM
# [23] = biological target: Serine/threonine-protein kinase 32A (Homo sapiens) (UniProt Q8WU08); conditions: Compound concentration 1000.0 nM
# [24] = biological target: Cyclin-dependent kinase-like 5 (Homo sapiens) (UniProt O76039); conditions: Compound concentration 1000.0 nM
# [25] = biological target: Insulin receptor-related protein (Homo sapiens) (UniProt P14616); conditions: Compound concentration 1000.0 nM
# NS3 protease = NS3 protease (Hepacivirus C, UniProt C1KIQ2); assay: Enzymatic assay; design: species or system Hepacivirus hominis
# [26] = biological target: Mitogen-activated protein kinase 10 (Homo sapiens) (UniProt P53779); conditions: Compound concentration 1000.0 nM
# [27] = biological target: Aurora kinase B (Homo sapiens) (UniProt Q96GD4); conditions: Compound concentration 1000.0 nM
# [28] = biological target: Serine/threonine-protein kinase TNNI3K (Homo sapiens) (UniProt Q59H18); conditions: Compound concentration 1000.0 nM
# [29] = biological target: Serine/threonine-protein kinase Nek6 (Homo sapiens) (UniProt Q9HC98); conditions: Compound concentration 1000.0 nM
# [30] = biological target: 5-hydroxytryptamine receptor 1B (Homo sapiens) (UniProt P28222); conditions: Compound concentration 10.0 uM
# [31] = biological target: Serine/threonine-protein kinase 26 (Homo sapiens) (UniProt Q9P289); conditions: Compound concentration 1000.0 nM
# [32] = biological target: Wee1-like protein kinase 2 (Homo sapiens) (UniProt P0C1S8); conditions: Compound concentration 1000.0 nM
# [33] = biological target: Ribosomal protein S6 kinase alpha-6 (Homo sapiens) (UniProt Q9UK32); conditions: Compound concentration 1000.0 nM
# [34] = biological target: Discoidin domain-containing receptor 2 (Homo sapiens) (UniProt Q16832); conditions: Compound concentration 1000.0 nM
# [35] = biological target: Phosphatidylinositol 4-phosphate 5-kinase type-1 gamma (Homo sapiens) (UniProt O60331); conditions: Compound concentration 1000.0 nM
# [36] = biological target: Serine/threonine-protein kinase SIK2 (Homo sapiens) (UniProt Q9H0K1); conditions: Compound concentration 1000.0 nM
# [37] = biological target: Testis-specific serine/threonine-protein kinase 3 (Homo sapiens) (UniProt Q96PN8); conditions: Compound concentration 1000.0 nM
# [38] = biological target: Serine/threonine-protein kinase PAK 1 (Homo sapiens) (UniProt Q13153); conditions: Compound concentration 1000.0 nM
# [39] = biological target: Fibroblast growth factor receptor 1 (Homo sapiens) (UniProt P11362); conditions: Compound concentration 1000.0 nM
# [40] = biological target: Ribosomal protein S6 kinase alpha-1 (Homo sapiens) (UniProt Q15418); conditions: Compound concentration 1000.0 nM
# [41] = biological target: Serine/threonine-protein kinase TAO2 (Homo sapiens) (UniProt Q9UL54); conditions: Compound concentration 1000.0 nM
# [42] = biological target: Epithelial discoidin domain-containing receptor 1 (Homo sapiens) (UniProt Q08345); conditions: Compound concentration 1000.0 nM
# [43] = biological target: Ribosomal protein S6 kinase alpha-4 (Homo sapiens) (UniProt O75676); conditions: Compound concentration 1000.0 nM
# [44] = biological target: Calcium/calmodulin-dependent protein kinase kinase 1 (Homo sapiens) (UniProt Q8N5S9); conditions: Compound concentration 1000.0 nM
# [45] = biological target: High affinity nerve growth factor receptor (Homo sapiens) (UniProt P04629); conditions: Compound concentration 1000.0 nM
# Ephrin type-A receptor 5 (Homo sapiens), sequence (P54756 whole entry): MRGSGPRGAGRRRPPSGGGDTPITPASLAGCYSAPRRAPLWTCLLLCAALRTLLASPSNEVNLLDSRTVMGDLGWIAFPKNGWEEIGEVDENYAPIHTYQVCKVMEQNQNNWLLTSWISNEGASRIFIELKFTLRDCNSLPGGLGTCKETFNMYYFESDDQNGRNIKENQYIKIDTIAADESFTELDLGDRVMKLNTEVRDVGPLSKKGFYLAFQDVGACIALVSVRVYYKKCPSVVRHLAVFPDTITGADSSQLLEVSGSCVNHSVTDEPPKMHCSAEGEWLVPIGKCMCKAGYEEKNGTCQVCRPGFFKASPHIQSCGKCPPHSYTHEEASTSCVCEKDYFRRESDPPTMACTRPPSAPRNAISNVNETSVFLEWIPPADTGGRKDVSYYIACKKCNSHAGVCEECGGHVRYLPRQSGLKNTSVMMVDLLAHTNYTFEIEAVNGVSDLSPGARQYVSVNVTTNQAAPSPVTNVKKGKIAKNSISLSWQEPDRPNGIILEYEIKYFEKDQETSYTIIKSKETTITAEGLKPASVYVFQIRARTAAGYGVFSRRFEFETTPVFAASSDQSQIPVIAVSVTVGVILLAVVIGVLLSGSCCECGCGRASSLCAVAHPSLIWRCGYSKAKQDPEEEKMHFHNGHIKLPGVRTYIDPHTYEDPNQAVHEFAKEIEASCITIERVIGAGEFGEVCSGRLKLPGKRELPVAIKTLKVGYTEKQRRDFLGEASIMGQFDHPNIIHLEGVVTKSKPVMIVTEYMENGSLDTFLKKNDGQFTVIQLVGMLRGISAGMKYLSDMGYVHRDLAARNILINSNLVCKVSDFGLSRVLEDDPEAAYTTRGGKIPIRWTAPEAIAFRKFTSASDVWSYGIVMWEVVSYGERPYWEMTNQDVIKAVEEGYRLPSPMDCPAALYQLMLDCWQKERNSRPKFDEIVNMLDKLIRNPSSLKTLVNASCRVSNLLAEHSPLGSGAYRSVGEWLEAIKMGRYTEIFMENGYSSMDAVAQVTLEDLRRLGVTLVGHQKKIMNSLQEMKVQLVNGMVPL
# ALK tyrosine kinase receptor (Homo sapiens), Q9UM73 [L1196M], sequence (Q9UM73 whole entry L1196M, looked up): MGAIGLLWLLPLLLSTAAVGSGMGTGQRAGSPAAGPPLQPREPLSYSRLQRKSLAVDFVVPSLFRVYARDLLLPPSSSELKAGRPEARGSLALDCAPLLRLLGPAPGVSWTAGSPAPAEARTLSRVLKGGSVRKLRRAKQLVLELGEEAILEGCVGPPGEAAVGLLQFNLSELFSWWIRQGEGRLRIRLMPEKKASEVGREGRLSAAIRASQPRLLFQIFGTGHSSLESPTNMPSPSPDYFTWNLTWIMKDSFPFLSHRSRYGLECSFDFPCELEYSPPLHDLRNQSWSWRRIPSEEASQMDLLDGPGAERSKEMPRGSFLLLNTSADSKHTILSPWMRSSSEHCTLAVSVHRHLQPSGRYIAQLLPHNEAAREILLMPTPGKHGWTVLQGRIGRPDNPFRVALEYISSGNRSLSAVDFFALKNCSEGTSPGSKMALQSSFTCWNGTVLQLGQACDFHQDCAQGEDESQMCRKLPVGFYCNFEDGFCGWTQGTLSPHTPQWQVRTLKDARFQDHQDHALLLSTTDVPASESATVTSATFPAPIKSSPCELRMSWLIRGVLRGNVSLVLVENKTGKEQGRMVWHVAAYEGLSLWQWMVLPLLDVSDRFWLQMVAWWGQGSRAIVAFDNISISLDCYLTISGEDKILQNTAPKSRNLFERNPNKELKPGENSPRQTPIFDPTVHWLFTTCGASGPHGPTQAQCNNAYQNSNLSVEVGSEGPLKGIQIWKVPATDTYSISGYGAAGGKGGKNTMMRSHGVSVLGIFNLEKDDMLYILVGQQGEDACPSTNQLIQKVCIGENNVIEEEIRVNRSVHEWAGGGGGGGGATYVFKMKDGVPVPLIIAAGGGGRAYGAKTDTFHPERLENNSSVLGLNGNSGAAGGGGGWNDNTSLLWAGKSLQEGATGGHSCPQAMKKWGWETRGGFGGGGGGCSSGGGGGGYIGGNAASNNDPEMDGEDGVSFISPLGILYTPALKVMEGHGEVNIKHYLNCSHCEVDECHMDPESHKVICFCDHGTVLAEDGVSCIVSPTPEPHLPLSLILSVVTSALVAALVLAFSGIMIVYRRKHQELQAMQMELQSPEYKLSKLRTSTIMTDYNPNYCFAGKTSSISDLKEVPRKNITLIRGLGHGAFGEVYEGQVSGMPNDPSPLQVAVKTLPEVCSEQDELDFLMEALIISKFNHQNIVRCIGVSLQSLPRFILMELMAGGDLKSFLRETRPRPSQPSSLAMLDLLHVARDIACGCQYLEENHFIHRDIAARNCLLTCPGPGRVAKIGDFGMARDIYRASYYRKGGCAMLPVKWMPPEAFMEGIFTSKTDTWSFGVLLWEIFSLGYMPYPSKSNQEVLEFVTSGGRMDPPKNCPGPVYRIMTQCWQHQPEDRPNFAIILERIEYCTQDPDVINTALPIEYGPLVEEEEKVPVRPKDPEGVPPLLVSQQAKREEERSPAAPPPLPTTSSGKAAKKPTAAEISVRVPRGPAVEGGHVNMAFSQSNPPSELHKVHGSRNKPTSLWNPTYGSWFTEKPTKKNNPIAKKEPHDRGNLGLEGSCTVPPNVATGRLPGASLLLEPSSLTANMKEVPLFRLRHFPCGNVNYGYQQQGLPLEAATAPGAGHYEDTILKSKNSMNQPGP
# Tyrosine-protein kinase Yes (Homo sapiens), sequence (P07947 2-543 limits assumed): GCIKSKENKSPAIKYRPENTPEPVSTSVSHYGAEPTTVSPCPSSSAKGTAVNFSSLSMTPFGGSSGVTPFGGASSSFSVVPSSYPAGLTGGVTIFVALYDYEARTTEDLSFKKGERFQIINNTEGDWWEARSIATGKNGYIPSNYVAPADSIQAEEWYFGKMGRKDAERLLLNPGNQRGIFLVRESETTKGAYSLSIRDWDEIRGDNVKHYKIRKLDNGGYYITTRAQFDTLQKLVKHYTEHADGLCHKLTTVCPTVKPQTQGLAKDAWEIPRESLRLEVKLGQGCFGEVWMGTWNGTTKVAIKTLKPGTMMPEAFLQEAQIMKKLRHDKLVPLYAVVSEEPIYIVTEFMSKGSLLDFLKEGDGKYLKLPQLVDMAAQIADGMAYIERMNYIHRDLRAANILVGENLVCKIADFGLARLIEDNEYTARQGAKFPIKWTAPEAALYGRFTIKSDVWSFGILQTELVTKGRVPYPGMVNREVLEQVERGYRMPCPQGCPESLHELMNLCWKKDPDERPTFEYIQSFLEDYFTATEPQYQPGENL
# Ribosomal protein S6 kinase alpha-1 (Homo sapiens), sequence (Q15418 whole entry): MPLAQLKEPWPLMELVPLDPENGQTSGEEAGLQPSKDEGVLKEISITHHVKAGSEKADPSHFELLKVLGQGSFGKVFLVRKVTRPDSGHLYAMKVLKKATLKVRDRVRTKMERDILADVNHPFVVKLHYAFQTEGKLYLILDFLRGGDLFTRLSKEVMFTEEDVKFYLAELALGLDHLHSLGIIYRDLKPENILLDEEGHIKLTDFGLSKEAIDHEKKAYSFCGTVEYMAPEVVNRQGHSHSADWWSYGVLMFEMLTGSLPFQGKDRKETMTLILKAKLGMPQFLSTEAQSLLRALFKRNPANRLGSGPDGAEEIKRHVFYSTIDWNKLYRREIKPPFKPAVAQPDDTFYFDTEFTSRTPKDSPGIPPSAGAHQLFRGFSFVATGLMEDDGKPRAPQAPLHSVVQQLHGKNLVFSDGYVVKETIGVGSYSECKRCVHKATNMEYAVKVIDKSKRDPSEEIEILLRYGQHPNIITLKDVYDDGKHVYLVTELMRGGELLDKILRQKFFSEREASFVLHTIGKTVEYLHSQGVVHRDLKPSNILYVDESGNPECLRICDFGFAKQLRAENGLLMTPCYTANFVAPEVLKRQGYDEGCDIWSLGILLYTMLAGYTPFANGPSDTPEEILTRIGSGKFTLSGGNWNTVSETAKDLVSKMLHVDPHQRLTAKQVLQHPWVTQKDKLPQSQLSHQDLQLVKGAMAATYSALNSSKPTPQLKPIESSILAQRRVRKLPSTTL
# Serine/threonine-protein kinase Nek6 (Homo sapiens), sequence (Q9HC98 whole entry): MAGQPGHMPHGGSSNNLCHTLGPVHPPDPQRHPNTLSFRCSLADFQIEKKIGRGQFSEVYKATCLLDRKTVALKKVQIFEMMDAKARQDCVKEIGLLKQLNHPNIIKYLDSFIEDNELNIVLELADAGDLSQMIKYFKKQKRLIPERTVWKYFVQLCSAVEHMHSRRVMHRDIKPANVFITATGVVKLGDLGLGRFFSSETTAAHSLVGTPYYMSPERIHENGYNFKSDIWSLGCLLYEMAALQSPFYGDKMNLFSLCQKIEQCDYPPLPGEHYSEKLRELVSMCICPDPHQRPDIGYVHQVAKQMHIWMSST
# Aurora kinase B (Homo sapiens), sequence (Q96GD4 whole entry): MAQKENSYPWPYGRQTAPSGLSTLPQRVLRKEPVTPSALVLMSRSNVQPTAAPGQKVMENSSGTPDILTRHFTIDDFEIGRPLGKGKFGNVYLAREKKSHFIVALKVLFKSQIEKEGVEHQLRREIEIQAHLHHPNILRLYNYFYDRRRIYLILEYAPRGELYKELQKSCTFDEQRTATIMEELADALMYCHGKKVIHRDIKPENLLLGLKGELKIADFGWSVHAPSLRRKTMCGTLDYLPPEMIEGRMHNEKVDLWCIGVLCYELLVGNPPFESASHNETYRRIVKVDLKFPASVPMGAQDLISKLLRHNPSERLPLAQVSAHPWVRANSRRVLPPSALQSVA
# NS3 protease, sequence (C1KIQ2 whole entry): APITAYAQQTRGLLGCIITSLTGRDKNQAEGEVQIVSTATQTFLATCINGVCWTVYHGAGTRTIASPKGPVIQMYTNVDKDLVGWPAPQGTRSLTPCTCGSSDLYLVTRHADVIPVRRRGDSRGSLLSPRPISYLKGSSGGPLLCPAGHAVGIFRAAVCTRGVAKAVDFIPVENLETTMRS
# Testis-specific serine/threonine-protein kinase 3 (Homo sapiens), sequence (Q96PN8 whole entry): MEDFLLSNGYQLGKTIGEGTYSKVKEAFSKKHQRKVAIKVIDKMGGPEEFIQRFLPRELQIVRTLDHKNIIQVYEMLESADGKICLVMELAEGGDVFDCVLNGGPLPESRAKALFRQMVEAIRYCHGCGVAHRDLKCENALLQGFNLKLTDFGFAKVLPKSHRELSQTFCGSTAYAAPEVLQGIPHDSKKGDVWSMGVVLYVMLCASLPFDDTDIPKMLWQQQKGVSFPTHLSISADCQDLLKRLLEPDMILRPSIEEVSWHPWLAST
structure (smiles),measurement,setting,value
COc1ccc2c(O[C@@H]3C[C@H]4C(=O)N[C@]5(C(=O)O)CC5/C=C\CCCCC[C@H](NC(=O)OC5CCCC5)C(=O)N4C3)cc(-c3csc(NC(=O)C(C)C)n3)nc2c1C (some centres not stated) [BI 1230],residual activity,[1],57%
same,residual activity,[2],100%
same,residual activity,[3],96%
same,residual activity,[4],100%
same,residual activity,[5],100%
same,residual activity,[6],100%
same,residual activity,[7],91%
same,residual activity,[8],100%
same,residual activity,[9],100%
same,residual activity,[10],100%
same,residual activity,[11],97%
same,residual activity,[12],97%
same,residual activity,[13],100%
same,residual activity,[14],97%
same,residual activity,[15],89%
same,residual activity,[16],100%
same,residual activity,[17],100%
same,residual activity,[18],92%
same,residual activity,[19],100%
same,residual activity,[20],94%
same,residual activity,[21],100%
same,residual activity,[22],100%
same,residual activity,[23],78%
same,residual activity,[24],77%
same,residual activity,[25],95%
same,IC50,NS3 protease,6.7 nM (active)
same,residual activity,[26],71%
same,residual activity,[27],91%
same,residual activity,[28],100%
same,residual activity,[29],98%
same,inhibition,[30],7.71%
same,residual activity,[31],95%
same,residual activity,[32],100%
same,residual activity,[33],92%
same,residual activity,[34],88%
same,residual activity,[35],100%
same,residual activity,[36],100%
same,residual activity,[37],80%
same,residual activity,[38],100%
same,residual activity,[39],98%
same,residual activity,[40],74%
same,residual activity,[41],98%
same,residual activity,[42],100%
same,residual activity,[43],96%
same,residual activity,[44],100%
same,residual activity,[45],82%
O=C(N[C@H]1CCCCC/C=C\C2C[C@@]2(C(=O)O)NC(=O)[C@@H]2C[C@@H](Oc3ccncc3)CN2C1=O)OC1CCCC1 (some centres not stated) [BI 1675],residual activity,[1],89%
same,residual activity,[2],100%
same,residual activity,[3],100%
same,residual activity,[4],99%
same,residual activity,[5],91%
same,residual activity,[6],100%
same,residual activity,[7],100%
same,residual activity,[8],100%
same,residual activity,[9],100%
same,residual activity,[10],99%
same,residual activity,[11],92%
same,residual activity,[12],100%
same,residual activity,[13],88%
same,residual activity,[14],100%
same,residual activity,[15],89%
same,residual activity,[16],100%
same,residual activity,[17],100%
same,residual activity,[18],99%
same,residual activity,[19],100%
same,residual activity,[20],87%
same,residual activity,[21],100%
same,residual activity,[22],79%
same,residual activity,[23],89%
same,residual activity,[24],83%
same,residual activity,[25],100%
same,IC50,NS3 protease,4870 nM (not active)
same,residual activity,[26],81%
same,residual activity,[27],89%
same,residual activity,[28],100%
same,residual activity,[29],87%
same,inhibition,[30],-3.04%
same,residual activity,[31],97%
same,residual activity,[32],100%
same,residual activity,[33],60%
same,residual activity,[34],100%
same,residual activity,[35],100%
same,residual activity,[36],100%
same,residual activity,[37],100%
same,residual activity,[38],89%
same,residual activity,[39],100%
same,residual activity,[40],100%
same,residual activity,[41],100%
same,residual activity,[42],100%
same,residual activity,[43],100%
same,residual activity,[44],96%
same,residual activity,[45],100%
